Experimental data as given in patent US20260053799A1, “COMPOUNDS FOR TREATING CANCER” (EVEXTA BIO, priority 2022, published 2026).
Entries after “also recorded” stand apart in the source; their conditions may differ.

Key:
MCF7 tumors = assay: Antitumor efficacy in xenograft model of SCID-CB17 mice implanted with MCF7 cells; assay type: in vivo; details: per os, qd 5 weeks
Experimental: Antitumor efficacy of anticancer compounds in a xenograft model of SCID-CB17 mice implanted with MCF7 cells, and assessment of the substrates phosphorylation.
MCF7 cells are amplified in vitro in complete medium prior implantation. 24h prior cells injection, the mice are implanted with an estrogen pellet (Innovative Research of America at 0.18 mg/pellet).
On the day of injection, cells are harvested, counted thanks to a trypan blue viability dye (acceptability cut-off ≥80% viability), and resuspended in 50:50 PBS:Matrigel at the appropriate concentration. The cells are then injected subcutaneously in the right flank at 5.10^6 cells/mouse in 200 μL PBS:Matrigel within 30 minutes after harvesting, in 120 mice. […]
In order to assess the effectiveness of the compounds on tumorigenesis, tumor volume are measured twice per week for 8 weeks and mice are weighed once per week for 8 weeks.
The sizes of the primary tumors are measured using calipers and the tumor volume (TV) is extrapolated to a sphere using the formula TV=4/3π×r3, by calculating the mean radius from the two measurements. […]

[1] = test system: ER+ and HER2+breast cancer; details: patients, cited from earlier work
[2] = Plasma and brain concentration after dosing (blood brain barrier crossing), Table A; assay type: in vivo; details: for Concentration: dose 25 mg/kg, administered orally
Excerpt: The present disclosure also encompasses the advantageous therapeutic use of a quinazoline carboxamide azetidine compound, preferably of 4-[(S)-2-Azetidin-1-yl-1-(4-chloro-3-trifluoromethyl-phenyl)-ethylamino]-quinazoline-8-carboxylic acid amide (M2698) or a pharmaceutically acceptable polymorph, enantiomer, stereoisomer, salt, solvate or tautomer thereof, for treating a metastasized cancer, e.g., a cancer that has spread to the brain, a bone, a lung, the liver, or the central nervous system.

[3] = Machl et al., 2016; cited from earlier work

SMILES | MCF7 tumor growth (tumor volume) (MCF7 tumors; Elacestrant 50 mg/kg/day) | Tolerability ([1]; monotherapy and combined with trastuzumab or tamoxifen) | Efficacy of monotherapy ([1]; monotherapy) | MCF7 tumor growth (tumor volume) (MCF7 tumors; M2698 20 mg/kg/day, 20 mg/kg/day) | Concentration ([2]; Brain) [ng/mL] | Concentration ([2]; Plasma) [ng/mL] | Ability to cross the blood brain barrier ([2]; administered orally at 25 mg/kg of body weight) | Crosses the blood-brain barrier [3]
CCNCCc1ccc(CN(CC)c2cc(OC)ccc2[C@@H]2CCc3cc(O)ccc3C2)cc1 [Elacestrant, (R)-6-(2-(ethyl(4-(2-(ethylamino)ethyl)benzyl)amino)-4-methoxyphenyl)-5,6,7,8-tetrahydronaphthalen-2-ol, reference compound] | weakly inhibited | – | – | – | – | – | – | –
NC(=O)c1cccc2c(N[C@H](CN3CCC3)c3ccc(Cl)c(C(F)(F)F)c3)ncnc12 [M2698, 4-[(S)-2-Azetidin-1-yl-1-(4-chloro-3-trifluoromethyl-phenyl)-ethylamino]-quinazoline-8-carboxylic acid amide] | – | well tolerated | modest | strong antitumor efficacy; also recorded: strongly inhibited tumor growth | 4000 | 1600 | able to cross the blood brain barrier | crosses the blood-brain barrier
